Laboratory results published in US8853387B2, “Mimetics of sulfated oligosaccharides” (Istituto di Ricerche Chimiche e Biochimiche “G. Ronzoni”, priority 2008, dated 2014).

Molecular target: T1, recombinant human heparanase (Homo sapiens, UniProt Q9Y251)
T1 sequence (Q9Y251 158-543 limits assumed): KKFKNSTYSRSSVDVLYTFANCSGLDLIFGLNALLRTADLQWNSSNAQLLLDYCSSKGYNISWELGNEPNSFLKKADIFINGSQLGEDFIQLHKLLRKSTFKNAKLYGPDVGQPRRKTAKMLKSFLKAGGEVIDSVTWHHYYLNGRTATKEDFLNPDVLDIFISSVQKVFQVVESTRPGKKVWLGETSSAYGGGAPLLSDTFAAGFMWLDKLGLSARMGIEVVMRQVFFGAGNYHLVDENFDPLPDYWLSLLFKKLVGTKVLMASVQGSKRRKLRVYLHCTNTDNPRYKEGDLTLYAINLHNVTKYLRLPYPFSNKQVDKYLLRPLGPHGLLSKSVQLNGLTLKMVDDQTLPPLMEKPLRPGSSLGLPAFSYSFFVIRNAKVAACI
T1 sequence (Q9Y251 36-109 limits assumed): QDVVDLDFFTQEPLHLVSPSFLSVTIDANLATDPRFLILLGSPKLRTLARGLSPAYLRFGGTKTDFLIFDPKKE
Assay: Heparanase activity on sulfate labeled ECM substrate
Assay type: biochemical
Details: compound at 5 μg/ml; recombinant human heparanase 10 ng/ml, 37° C., pH 6.0, 4 h; control (enzyme alone) = 100
Protocol: Sulfated compound was tested at two concentrations (1 & 5 μg/ml) for its ability to inhibit the heparanase enzyme, using metabolically sulfate labeled ECM as a substrate. Briefly, sulfate labeled ECM coating the surface of 35-mm tissue culture dishes, is incubated (37° C., pH 6.0, 4 h, 1 ml final volume) with recombinant human heparanase (10 ng/ml) in the absence and presence of increasing amounts of each compound. The reaction mixture contains: 50 mM NaCl, 1 mM DTT, 1 mM CaCl2, and 10 mM buffer Phosphate-Citrate, pH 6.0. To evaluate the occurrence of proteoglycan degradation, the incubation medium is collected and applied for gel filtration on Sepharose 6B columns (0.9×30 cm). Fractions (0.2 ml) are eluted with PBS at a flow rate of 5 ml/h and counted for radioactivity. The excluded volume (VO) is marked by blue dextran and the total included volume (Vt) by phenol red. Degradation fragments of HS side chains are eluted at 0.5<Kav<0.8 (peak II). Results are best presented as the actual gel filtration profiles. Numerical values derived from these graphs are presented in FIG. 1 as heparanase activity (% of control), where: Heparanase activity=Kav×total cpm in peak II (fractions 15-35). Kav=(Ve−Vo/Vt−Vo). • Control Kay=Kay obtained in the presence of enzyme alone (without inhibitors). Effect of Sulfated Malto-Oligosaccharides Mimics (MOS) on Hpa Activity—Tables 1 and 2.

For Maltohexaose sulfate [MHS], the “Heparanase activity (5 μg/ml)” value was 27 % of control.
